Assay results from patent US7507281B2, “Antimicrobial cementitious composition, method and article” (Microban Products Company, priority 2005, dated 2009).

What was measured:
[1] = system: K. pneumoniae; assay: Zone of inhibition of fresh cured BAL grout discs, K. pneumoniae (Example 1); assay type: cell-based; conditions: Klebsiella pneumoniae
[2] = system: S. aureus; assay: Zone of inhibition of fresh cured BAL grout discs, S. aureus (Example 1); assay type: cell-based; conditions: Staphylococcus aureus
[3] = system: Aspergillus niger; assay: AATCC 30 Part III antifungal test of grout discs after QUV/Xenon exposure and water-spray neutralization (Example 2); assay type: cell-based; conditions: for Growth A. niger: weathered and pH-neutralized, 168-hour incubation, sulfate
Procedure: Grout samples were prepared and cured as in Example 1, with antimicrobial agent admixed into the dry compound at levels of 0 ppm, 1000 ppm, and 2000 ppm based upon the total weight of the dry mix and antimicrobial agent (excluding water). Water was added, the slurry mixed, and 1.5-inch diameter pucks cast.
After air-curing, the samples were exposed for eight hours in either of QUV/Spray Accelerated Weathering Controller or Xenon Testing Chamber Xe-3HS (both by Q-Panel Lab Products, Cleveland, Ohio). The QUV exposure is an assay well known in the art for simulating aging, discoloration and/or degradation caused by conditions of ultraviolet radiation exposure, such as would be encountered in an outdoor application.
Thereafter, the sample discs were subjected to one hour of water spray, followed by one hour of condensation, alternatingly repeated for a total of eight hours. This treatment neutralizes the pH of the grout samples, simulating brief real-world exposure of the grout articles to, e.g., a shower stall application.
Samples then were plated against Aspergillus niger using the 30 Part III test. At the end of the 168-hour incubation period, the test plates were removed from the test chamber and the samples were evaluated for fungal attack and encroachment. The antimicrobial agent tested and the results of the evaluation are shown in Table 2; control and experimental plates are shown in FIGS. 1-3.

[4] = Thermal stability; assay type: physicochemical
Procedure: This species also appears to be thermally stable up to 160° C. and above. Thermal stability makes imazalil agent especially well-suited for inclusion in the production of cementitious powder by various manufacturers, as these powders are typically dried and packed at elevated temperatures. Many other antimicrobial/antifungal agents tend to discolor and clump when so thermally exposed.

[5] = UV stability / discoloration under ultraviolet irradiation; assay type: physicochemical; conditions: UVA 340 lamps, 168 hrs
From the text: Resistance to ultraviolet radiation and discoloring is advantageous given the typical outdoor environment of cured cementitious articles.

[6] = 1000 ppm imazalil sulfate in BAL grout disc, fresh cured
[7] = 2000 ppm imazalil sulfate in BAL grout disc, fresh cured

Row | Structure (SMILES) | zone of inhibition at 500 ppm ([1]; BAL, read-out: Zone of Inhibition, mm K. pneumoniae) [mm] | zone of inhibition at 1000 ppm [1, 6] [mm] | zone of inhibition at 2000 ppm [1, 7] [mm] | zone of inhibition at 500 ppm ([2]; BAL, read-out: Zone of Inhibition, mm S. aureus) [mm] | zone of inhibition at 1000 ppm [2, 6] [mm] | zone of inhibition at 2000 ppm [2, 7] [mm] | Growth A. niger ([3]; 1000 ppm imazalil sulfate in grout disc) | Growth A. niger ([3]; 2000 ppm imazalil sulfate in grout disc) | Resistance of grout puck to fungal attack (FIG. 2) ([3]; 1000 ppm imazalil agent in BAL grout, Aspergillus niger) | Disruption to fungal encroachment by grout sample (FIG. 3) ([3]; 2000 ppm imazalil agent in BAL grout, Aspergillus niger) | Thermally stable up to [4] [°C] | Discoloration after prolonged exposure to ultraviolet irradiation [5]
1 | C=CCOC(Cn1ccnc1)c1ccc(Cl)cc1Cl.O=S(=O)(O)O (racemic) [Imazalil Sulfate, (±)-1-[2-(2,4-dichlorophenyl)-2-(2-propenyloxy)ethyl]-1H-imidazole sulfate] | 5 | 5 | 5 | 5 | 6 | 6 | no growth | no growth |  |  |  | 
2 | C=CCOC(Cn1ccnc1)c1ccc(Cl)cc1Cl (racemic) [imazalil agent, (±)-1-[2-(2,4-dichlorophenyl)-2-(2-propenyloxy)ethyl]-1H-imidazole] |  |  |  |  |  |  |  |  | strong resistance to fungal attack | significant disruption to fungal encroachment | ≥ 160 | no discoloration
